The text below walks through data of publication PMC4884539 (Journal of molecular biology, 2016).

For this data set the following is noted: pH 7.4.

Regarding Ac- RGEaWmYlKNNLSETmMsNmWGR- NH2 [AP6], the “Solubility (in words)” value was “less soluble”.

As for “Ac- MNWESkGEwlRMRYGtmLSNGnM- NH2 [Design P2]”, the “Solubility (in words)” value is reported as “less soluble”.
